Assay results as given in PubChem BioAssay AID1208 (EPA DSSTox, 2008).
The source made the active and inactive calls.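 The calls were made as follows: active = at least one rat sex group has a carcinogenic potency value and tumor site recorded; inconclusive = only rat studies were judged inadequate by the national testing program; inactive = no potency or tumor site, with negative rat experiments.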

System: rat chronic carcinogenicity bioassay, TD50
Assay: DSSTox (CPDBAS) Carcinogenic Potency Database Summary Rat Bioassay Results
Details: for outcome: TD50_Rat_Note: no positive results
Procedure, shortened: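 Chronic long-term rat cancer bioassays from literature and NCI/NTP, taking the most positive result per sex. TD50 in mmol converted to a 1–100 Activity Score from log10(1/TD50). Mixtures lacking TD50 scored 50.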

[1] = TargetSites_Rat_Female: no positive results

Compound	outcome [1]	other results
Nc1ccc(/C=C/c2ccc(N)cc2S(=O)(=O)O)c(S(=O)(=O)O)c1	inactive; no positive results	–
COP(=S)(OC)SCn1nnc2ccccc2c1=O	inactive; no positive results	–
CC1CN(N=O)CC(C)N1C (configuration not stated)	–	Potency (TargetSites_Rat_Female: nasal cavity, active compounds read low): 0.151 mg/kg/day
IC(I)I	inactive; no positive results	–
C=CCOCC1CO1 (configuration not stated)	inactive; no positive results	–
NS(=O)(=O)c1cc(C(=O)O)c(NCc2ccco2)cc1Cl	inactive; no positive results	–
CC[C@]1(O)CC2CN(CCc3c([nH]c4ccccc34)[C@@](C(=O)OC)(c3cc4c(cc3OC)N(C)[C@H]3[C@@](O)(C(=O)OC)[C@H](OC(C)=O)[C@]5(CC)C=CCN6CC[C@]43[C@@H]65)C2)C1 (some centres not stated)	–	outcome: inactive; no positive results
